Data on eight compounds can be found in ChEMBL document CHEMBL3091310, “Pseudo-cyclization through intramolecular hydrogen bond enables discovery of pyridine substituted pyrimidines as new Mer kinase inhibitors” (J Med Chem, 2013).

The species named for one data set is Mus musculus. As to conditions: in vivo, po, 3 mg/kg.
A short description of data set [1]: in vivo. As to conditions: mouse, po, 3 mg/kg.
Data set [2] can be described thus: in vivo. The note with it: mouse, po, 3 mg/kg. The source holds these as a separate data set.
Data set [3] is described as follows: in vivo. As to conditions: mouse, po, 3 mg/kg. This is another data set of the same source.
Data set [4] is described as follows: in vivo. The note with it: mouse, iv, 3 mg/kg.
Data set [5] in a line: in vivo. The note with it: mouse, iv, 3 mg/kg. This is another data set of the same source.
Data set [6] in a line: in vivo. As to conditions: mouse, iv, 3 mg/kg. The source holds these as a separate data set.
Data set [7] in a line: in vivo. The note with it: mouse, iv, 3 mg/kg. The source holds these as a separate data set.
A short description of data set [8]: in vivo. The note with it: mouse, iv, 3 mg/kg. This is another data set of the same source.
In data set [9] the target is T1, Tyrosine-protein kinase receptor TYRO3 (Homo sapiens, UniProt Q06418).
T1 sequence (Q06418 whole entry): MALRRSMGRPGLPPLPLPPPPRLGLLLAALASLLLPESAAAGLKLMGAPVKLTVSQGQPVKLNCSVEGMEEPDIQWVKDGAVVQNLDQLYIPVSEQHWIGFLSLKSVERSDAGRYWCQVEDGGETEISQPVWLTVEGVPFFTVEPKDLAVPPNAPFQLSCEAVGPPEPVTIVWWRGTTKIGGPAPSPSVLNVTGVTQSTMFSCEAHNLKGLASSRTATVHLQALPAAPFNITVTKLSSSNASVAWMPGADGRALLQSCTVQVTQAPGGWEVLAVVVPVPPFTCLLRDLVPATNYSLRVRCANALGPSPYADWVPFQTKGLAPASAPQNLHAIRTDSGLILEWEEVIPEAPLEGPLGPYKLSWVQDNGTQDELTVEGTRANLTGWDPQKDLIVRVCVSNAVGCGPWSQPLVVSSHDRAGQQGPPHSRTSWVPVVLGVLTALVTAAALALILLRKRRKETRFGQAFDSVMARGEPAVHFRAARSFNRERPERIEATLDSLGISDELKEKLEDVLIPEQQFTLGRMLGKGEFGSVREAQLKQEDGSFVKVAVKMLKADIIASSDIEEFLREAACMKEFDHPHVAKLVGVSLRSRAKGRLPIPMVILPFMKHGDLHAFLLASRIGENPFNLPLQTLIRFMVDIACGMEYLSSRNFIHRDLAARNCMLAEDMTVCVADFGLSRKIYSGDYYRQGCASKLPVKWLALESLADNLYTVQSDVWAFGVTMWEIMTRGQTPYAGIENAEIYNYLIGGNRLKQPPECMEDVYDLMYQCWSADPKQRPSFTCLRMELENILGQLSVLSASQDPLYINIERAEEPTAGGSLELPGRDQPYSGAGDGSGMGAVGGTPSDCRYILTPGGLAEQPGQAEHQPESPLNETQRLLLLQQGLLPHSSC

In data set [10] the target is T2, Tyrosine-protein kinase receptor UFO (Homo sapiens, UniProt P30530).
T2 sequence (P30530 whole entry): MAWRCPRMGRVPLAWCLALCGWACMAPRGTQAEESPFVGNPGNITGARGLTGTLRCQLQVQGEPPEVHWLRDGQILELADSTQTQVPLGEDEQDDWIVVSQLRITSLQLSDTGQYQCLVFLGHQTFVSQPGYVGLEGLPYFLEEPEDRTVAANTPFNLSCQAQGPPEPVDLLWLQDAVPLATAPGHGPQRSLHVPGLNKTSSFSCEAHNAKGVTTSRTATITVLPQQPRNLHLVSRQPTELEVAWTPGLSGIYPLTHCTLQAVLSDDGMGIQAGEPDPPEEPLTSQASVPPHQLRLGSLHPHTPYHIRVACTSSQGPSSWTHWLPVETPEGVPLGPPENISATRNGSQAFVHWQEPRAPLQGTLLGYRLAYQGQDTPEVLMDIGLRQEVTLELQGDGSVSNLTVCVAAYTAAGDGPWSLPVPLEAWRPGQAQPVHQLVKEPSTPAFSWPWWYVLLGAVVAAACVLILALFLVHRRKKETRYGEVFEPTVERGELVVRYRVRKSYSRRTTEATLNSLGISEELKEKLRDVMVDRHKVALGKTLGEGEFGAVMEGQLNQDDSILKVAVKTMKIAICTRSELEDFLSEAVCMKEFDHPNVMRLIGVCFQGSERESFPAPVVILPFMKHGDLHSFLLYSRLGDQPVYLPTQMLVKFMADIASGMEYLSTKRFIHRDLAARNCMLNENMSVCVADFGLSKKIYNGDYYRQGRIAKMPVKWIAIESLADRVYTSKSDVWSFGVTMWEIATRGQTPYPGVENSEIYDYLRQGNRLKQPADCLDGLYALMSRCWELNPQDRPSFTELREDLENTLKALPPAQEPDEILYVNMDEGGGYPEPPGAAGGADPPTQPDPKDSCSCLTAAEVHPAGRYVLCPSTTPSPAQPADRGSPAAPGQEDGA

Structures are written as SMILES.

In general, AUC(0-t) refers to exposure summed from dosing to a finite time, without extrapolation to infinity. Read a high AUC(0-t) as more exposure. As a reminder, the Cmax is the peak of the concentration-time curve. As a reminder, the Tmax is the time at which the peak concentration occurs. The Vd is a proportionality between amount in the body and measured concentration, not a real space. High values mean wide distribution into tissue, low ones little distribution into tissue. Usually clearance stands for the rate of elimination divided by the concentration. Read a high clearance as efficient removal. As a reminder, the half-life is how long it takes for the measured level to halve. A higher half-life goes with slow decline. As usually defined, the IC50 is the midpoint of a concentration-inhibition curve. Low values mean greater potency, high ones weaker potency.

As for `CCCCNc1ncc(-c2ccc(CNC3CC3)cn2)c(N[C@H]2CC[C@H](O)CC2)n1`, in the data set filed under Mus musculus, the F turned out to be 27%. The exposure AUC(0-t) amounted to 103 ng·h/mL in the data set “in vivo [1]” and 376 ng·h/mL in the data set “in vivo [7]”. The peak concentration (Cmax) in the data set “in vivo [2]” worked out at 33 ng/mL; in the data set “in vivo [6]”, 277 ng/mL. In “in vivo [3]”, the time to peak (Tmax) was found to be 30 min. Further, the volume of distribution (Vd) in the data set “in vivo [4]” was 39 L/kg. The same compound showed a clearance in the data set “in vivo [5]” of 130 mL/min/kg. The same compound had a half-life in “in vivo [8]” of 283 min.
As to `CCCCNc1ncc(-c2ccc(CN3CCC(F)(F)CC3)cn2)c(N[C@H]2CC[C@H](O)CC2)n1`, the F in the data set listed under Mus musculus is 55%. Moreover, the exposure AUC(0-t) in “in vivo [1]” is 210 ng·h/mL; in “in vivo [7]” it was 381 ng·h/mL. Also, the figures for the Cmax in the data set “in vivo [2]” and in “in vivo [6]” were 71 ng/mL and 737 ng/mL, respectively. In addition, the Tmax in “in vivo [3]” is 15 min. In the data set “in vivo [4]”, this compound displayed a Vd of 13.7 L/kg. Further, the clearance in “in vivo [5]” was determined as 123 mL/min/kg. Further, in the data set “in vivo [8]”, the half-life was 178 min.
`CCCCNc1ncc(-c2ccc(F)cc2)c(N[C@H]2CC[C@H](O)CC2)n1` gave an IC50 in data set [9] of over 30 µM.
As for `CCCCNc1ncc(-c2ccc(CN3CCOCC3)cn2)c(N[C@H]2CC[C@H](O)CC2)n1`, the F in the data set listed under Mus musculus was 23%. Also, the results for the area under the curve AUC(0-t) in the data set “in vivo [1]” and in the data set “in vivo [7]” were 180 ng·h/mL and 794 ng·h/mL, respectively. In addition, the maximum concentration (Cmax) in the data set “in vivo [2]” amounted to 162 ng/mL; in “in vivo [6]” it was 1980 ng/mL. Further, the time to peak (Tmax) in “in vivo [3]” was determined as 15 min. Besides, the distribution volume (Vd) in “in vivo [4]” came out at 3.9 L/kg. In the data set “in vivo [5]”, this compound had a clearance of 62.2 mL/min/kg. In the data set “in vivo [8]”, this compound showed a half-life of 95.4 min.
Regarding `CSc1ncc(-c2ccccn2)c(N[C@H]2CC[C@H](O)CC2)n1`, the IC50 in data set [9] and in [10] was over 30 µM each time.
For `CCCCNc1ncc(-c2ccc(S(=O)(=O)N3CCOCC3)cn2)c(N[C@H]2CC[C@H](O)CC2)n1`, in the data set filed under Mus musculus, the F stood at 1.3%. Also, the AUC(0-t) in “in vivo [1]” worked out at 4.68 ng·h/mL; in the data set “in vivo [7]”, 355 ng·h/mL. In addition, the Cmax in “in vivo [2]” came to 13.9 ng/mL; in “in vivo [6]”, 1980 ng/mL. In the data set “in vivo [3]”, the Tmax was determined as 15 min. For the same compound, the distribution volume (Vd) in “in vivo [4]” worked out at 2.9 L/kg. The clearance in “in vivo [5]” came out at 134 mL/min/kg. In “in vivo [8]”, this compound showed a half-life of 54.6 min.
Turning to `O[C@H]1CC[C@H](Nc2nc(NCc3ccccc3)ncc2-c2ccccn2)CC1`, the concentration for half-maximal inhibition (IC50) in data set [10] was over 30 µM.
As for `CCCCNc1nccc(N[C@H]2CC[C@H](O)CC2)n1`, the 50% inhibitory concentration (IC50) in data set [9] and in data set [10] was over 30 µM throughout.
